Test results: BindingDB's records for PubMed 2841449 (Merck Sharp & Dohme Research Laboratories, 1988)

Tests used:
[1] = target: Platelet-activating factor receptor (Homo sapiens, UniProt P25105)
Beta-arrestin-1 = Beta-arrestin-1 (Oryctolagus cuniculus, UniProt Q95223)
Sequence of Beta-arrestin-1 (Q95223 whole entry): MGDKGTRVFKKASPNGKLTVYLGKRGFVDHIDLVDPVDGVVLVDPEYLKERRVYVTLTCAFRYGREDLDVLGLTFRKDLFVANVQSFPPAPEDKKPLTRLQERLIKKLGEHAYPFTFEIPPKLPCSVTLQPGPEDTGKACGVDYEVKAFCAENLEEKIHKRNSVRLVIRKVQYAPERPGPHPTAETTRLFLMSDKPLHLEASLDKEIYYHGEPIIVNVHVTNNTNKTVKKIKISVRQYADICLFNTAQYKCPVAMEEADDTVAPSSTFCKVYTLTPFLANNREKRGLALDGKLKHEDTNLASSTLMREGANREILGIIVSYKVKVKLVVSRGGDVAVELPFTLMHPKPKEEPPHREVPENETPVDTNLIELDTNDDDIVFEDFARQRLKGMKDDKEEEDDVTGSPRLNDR

Sequence of Platelet-activating factor receptor (P25105 whole entry): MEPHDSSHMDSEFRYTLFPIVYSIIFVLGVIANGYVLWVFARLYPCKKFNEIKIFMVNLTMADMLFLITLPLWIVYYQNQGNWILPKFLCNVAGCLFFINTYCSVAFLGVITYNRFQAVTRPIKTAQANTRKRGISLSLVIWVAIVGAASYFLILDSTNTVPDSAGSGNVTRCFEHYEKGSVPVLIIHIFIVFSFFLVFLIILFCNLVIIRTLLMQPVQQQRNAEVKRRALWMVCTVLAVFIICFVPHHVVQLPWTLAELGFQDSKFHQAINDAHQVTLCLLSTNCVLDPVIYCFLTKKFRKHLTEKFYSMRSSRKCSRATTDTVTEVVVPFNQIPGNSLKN

CCCOc1c(OC)cc([C@H]2CC[C@H](c3cc(OC)c(OC)c(OC)c3)O2)cc1S(C)(=O)=O [L-659,989, (-)]
Ki [1]: 5.48 nM
Ki (Beta-arrestin-1): 0.51 nM
